Test results reported in patent publication US12215092B2, “Pleiotropic pathway modifier compounds and method of treating diseases” (PPM BIOPHARMA LLC, priority 2023, dated 2025).
Entries after “also recorded” stand apart in the source; their conditions may differ.

Assays:
[1] = system: human solid tissue cancer cells; assay: Cancer cell proliferation assay (CellTiter-Glo), solid tumors; assay type: cell-based; conditions: 3 days, concentration-dependent (FIG. 1)
Experimental: (§1) The cell proliferation of cancer cells was assessed using the CellTiter-Glo Luminescent Cell Viability Assay (Promega), per the manufacturer's protocol.
(§2) Briefly, in 96-well flat-bottom white-walled multiwell cell culture plates the control wells containing 100 μL/well medium without cells were used to obtain a value for background luminescence. For treatment wells, cells were seeded at 5,000 in 50 μL/well of complete RPMI-1640 medium and then mixed with 50 μL/well of the vehicle control (0.1% DMSO) or test compounds at indicated concentrations. Following cell incubation for 3 days at 37° C. in a humidified 5% CO2 incubator, the plates were equilibrated at room temperature for approximately 30 minutes. 100 μL of CellTiter-Glo® Reagent were added into each well and then contents were mixed for 2 minutes on an orbital plate shaker to induce cell lysis. After the plates were incubated at room temperature for 10 minutes, luminescent signals of each well were recorded with a Tecan M200 Plate Reader (Tecan Trading AG, Switzerland).
(§3) The following human cancer cells originated from various tissues were used to test the antiproliferative activity of PPM compounds (Table 2). […] The EC50 values for each test compounds were calculated using GraphPad Prizm. […]

c-MYC = c-MYC (Homo sapiens, UniProt P01106); assay: Automatic Western blot (Simple Western), targeted protein degradation: c-MYC; assay type: cell-based; conditions: for c-MYC in H929 cells (targeted protein degradation / expression): H929 human myeloma cells
Sequence of c-MYC (P01106 whole entry): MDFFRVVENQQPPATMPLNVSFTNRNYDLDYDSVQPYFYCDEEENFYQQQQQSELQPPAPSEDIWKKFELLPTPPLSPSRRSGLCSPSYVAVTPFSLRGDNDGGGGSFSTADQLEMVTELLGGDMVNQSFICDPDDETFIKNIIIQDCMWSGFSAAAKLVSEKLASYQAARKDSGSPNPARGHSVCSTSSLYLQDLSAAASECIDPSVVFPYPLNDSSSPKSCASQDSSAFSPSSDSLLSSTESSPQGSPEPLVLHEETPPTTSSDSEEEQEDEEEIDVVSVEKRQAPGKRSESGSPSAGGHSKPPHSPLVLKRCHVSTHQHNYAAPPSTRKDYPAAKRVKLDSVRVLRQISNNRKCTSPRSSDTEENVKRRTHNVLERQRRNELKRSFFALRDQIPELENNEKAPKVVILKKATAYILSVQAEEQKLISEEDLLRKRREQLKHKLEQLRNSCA
Experimental: (§4) Targeted protein degradation in test samples were determined using the automated capillary-based nanoproteomic immunoassay Simple Western System (Protein Simple). Cultured cells were washed with cold PBS once and lysed in cold RIPA buffer supplemented with protease and phosphatase inhibitors. The solutions were then incubated at 4° C. for 30 minutes with gentle agitation to fully lyse cells. Each test sample was diluted at 0.4 mg/ml and mixed with 5× reducing buffer with fluorescent molecular weight (MW) standards. Afterwards the samples were heated to 95° C. for 5 minutes, and 5 μL samples were loaded into each capillary tube. Proteins were passed and separated through stacking and separation matrices for 30 minutes at 250 V. Proteins were then immobilized to capillary walls using optimal photoactivated capture chemistry. Following proteins immobilization, capillaries were flushed with a wash buffer and incubated with a blocking reagent for 6 min. Each target protein was probed with a specific primary antibody (diluted in blocking buffer and incubated for 38 min) and a horseradish peroxidase (HRP)-conjugated secondary antibody (ready to use solutions, incubated for 23 min). A mixture of luminol and peroxide was added following manufacturer's protocol. The resulting chemiluminescent signal was captured by a CCD camera, and signal intensities were analyzed using Compass Software (Protein Simple).
(§5) 1H929 or Jurkat cells were treated with DMSO, the positive control pomalidomide (an FDA-approved immunomodulatory agent) or the selected test compound (compound 4) at indicated concentrations (0.001-10 μM) for 24 hours. […] Ikaros and other proteins (Table 1),

SEB induced PBMC = assay: Luminex-based multiplex cytokine assay, SEB induced PBMC; assay type: cell-based, human; conditions: concentration-dependent (FIG. 7)
target protein = assay: Targeted protein degradation in H929 and Jurkat cells (overall statement); assay type: cell-based; conditions: H929 human multiple myeloma cells and Jurkat human leukemia cells, concentration dependent
Experimental: (§6) Targeted protein degradation in test samples were determined using the automated capillary-based nanoproteomic immunoassay Simple Western System (Protein Simple). Cultured cells were washed with cold PBS once and lysed in cold RIPA buffer supplemented with protease and phosphatase inhibitors. The solutions were then incubated at 4° C. for 30 minutes with gentle agitation to fully lyse cells. Each test sample was diluted at 0.4 mg/ml and mixed with 5× reducing buffer with fluorescent molecular weight (MW) standards. Afterwards the samples were heated to 95° C. for 5 minutes, and 5 μL samples were loaded into each capillary tube. Proteins were passed and separated through stacking and separation matrices for 30 minutes at 250 V. Proteins were then immobilized to capillary walls using optimal photoactivated capture chemistry. Following proteins immobilization, capillaries were flushed with a wash buffer and incubated with a blocking reagent for 6 min. Each target protein was probed with a specific primary antibody (diluted in blocking buffer and incubated for 38 min) and a horseradish peroxidase (HRP)-conjugated secondary antibody (ready to use solutions, incubated for 23 min). […] The resulting chemiluminescent signal was captured by a CCD camera, and signal intensities were analyzed using Compass Software (Protein Simple). […]

Aiolos = Aiolos (Homo sapiens, UniProt Q9UKT9); assay: Automatic Western blot (Simple Western), targeted protein degradation: Aiolos; assay type: cell-based; conditions: 0.001-10 μM, 24 hours
Sequence of Aiolos (Q9UKT9 whole entry): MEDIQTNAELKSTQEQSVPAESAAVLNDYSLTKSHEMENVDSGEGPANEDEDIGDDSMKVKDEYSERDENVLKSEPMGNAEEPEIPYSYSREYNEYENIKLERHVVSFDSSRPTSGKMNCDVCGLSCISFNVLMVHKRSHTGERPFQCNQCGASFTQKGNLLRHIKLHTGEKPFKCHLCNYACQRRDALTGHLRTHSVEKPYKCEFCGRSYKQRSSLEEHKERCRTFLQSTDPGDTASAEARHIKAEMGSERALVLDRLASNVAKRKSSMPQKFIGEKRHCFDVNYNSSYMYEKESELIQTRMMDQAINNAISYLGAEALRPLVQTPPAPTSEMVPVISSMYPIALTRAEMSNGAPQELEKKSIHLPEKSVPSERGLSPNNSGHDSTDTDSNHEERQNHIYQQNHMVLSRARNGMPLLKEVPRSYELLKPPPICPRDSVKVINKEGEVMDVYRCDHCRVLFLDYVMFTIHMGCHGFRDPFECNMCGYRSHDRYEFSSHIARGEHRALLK
Experimental: as §6

Poly (I:C) induced PBMC = assay: Luminex-based multiplex cytokine assay, Poly (I:C) induced PBMC; assay type: cell-based, human; conditions: concentration-dependent (FIG. 5)
Eos = Eos (Homo sapiens, UniProt Q9H2S9); assay: Automatic Western blot (Simple Western), targeted protein degradation: Eos; assay type: cell-based; conditions: 0.001-10 μM, 24 hours
Sequence of Eos (Q9H2S9 whole entry): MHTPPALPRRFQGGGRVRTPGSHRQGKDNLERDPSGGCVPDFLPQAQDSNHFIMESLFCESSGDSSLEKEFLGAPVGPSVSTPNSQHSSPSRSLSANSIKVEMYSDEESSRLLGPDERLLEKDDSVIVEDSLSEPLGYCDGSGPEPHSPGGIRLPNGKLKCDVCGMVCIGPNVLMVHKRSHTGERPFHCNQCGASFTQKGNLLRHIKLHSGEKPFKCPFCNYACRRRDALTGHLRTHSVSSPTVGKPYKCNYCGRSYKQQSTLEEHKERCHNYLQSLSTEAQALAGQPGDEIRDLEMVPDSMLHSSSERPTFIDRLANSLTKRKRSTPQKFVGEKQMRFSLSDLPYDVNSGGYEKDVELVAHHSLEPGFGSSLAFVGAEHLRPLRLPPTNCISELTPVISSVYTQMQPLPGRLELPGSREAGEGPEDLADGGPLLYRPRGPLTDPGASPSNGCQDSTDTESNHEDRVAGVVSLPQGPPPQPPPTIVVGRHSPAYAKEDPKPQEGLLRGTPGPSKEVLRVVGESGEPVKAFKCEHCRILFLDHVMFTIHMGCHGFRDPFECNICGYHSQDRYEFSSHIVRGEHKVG
Experimental: as §6

Ikaros = Ikaros (Homo sapiens, UniProt Q13422); assay: Automatic Western blot (Simple Western), targeted protein degradation: Ikaros; assay type: cell-based; conditions: 0.001-10 μM, 24 hours
Sequence of Ikaros (Q13422 whole entry): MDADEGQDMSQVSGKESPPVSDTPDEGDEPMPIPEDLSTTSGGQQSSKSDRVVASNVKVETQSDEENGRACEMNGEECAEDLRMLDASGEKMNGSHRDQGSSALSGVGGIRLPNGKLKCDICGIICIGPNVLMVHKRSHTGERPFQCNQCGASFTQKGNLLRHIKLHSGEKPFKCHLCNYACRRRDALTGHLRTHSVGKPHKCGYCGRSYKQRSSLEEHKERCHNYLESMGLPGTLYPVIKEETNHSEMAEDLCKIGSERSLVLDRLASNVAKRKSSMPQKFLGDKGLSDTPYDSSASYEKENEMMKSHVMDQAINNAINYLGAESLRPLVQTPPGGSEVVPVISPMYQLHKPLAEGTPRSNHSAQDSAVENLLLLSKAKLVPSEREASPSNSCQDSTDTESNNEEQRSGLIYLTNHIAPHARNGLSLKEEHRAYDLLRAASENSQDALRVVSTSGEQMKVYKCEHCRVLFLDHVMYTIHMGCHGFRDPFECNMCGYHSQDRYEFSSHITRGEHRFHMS
Experimental: as §4, §5

HDAC = assay: In situ HDAC activity fluorometric assay in cancer cells; assay type: cell-based, human; conditions: 24 h treatment, concentration dependent (FIG. 8)
Experimental: In Situ HDAC Activity Fluorometric Kit was purchased from Abcam and performed according to the manufacturer instructions. The cells (20,000) were seeded in a black walled 96-well plate and let to adhere overnight, then treated with DMSO or PPM compounds at indicated concentrations for 24 hrs. The media was then replaced with an HDAC substrate (acetylated peptide) dissolved in media and cells incubated for 3 hrs under cell culture conditions, followed by addition of the developer for 30 min to stop the reaction. The fluorescence was measured at Ex/Em=368/442 nm.

LPS induced PBMC = assay: Luminex-based multiplex cytokine assay, LPS induced PBMC; assay type: cell-based, human; conditions: concentration-dependent (FIG. 6)
HDAC2 = HDAC2 (Homo sapiens, UniProt Q92769); assay: Automatic Western blot (Simple Western), targeted protein degradation: HDAC2; assay type: cell-based; conditions: 0.001-10 μM, 24 hours
Sequence of HDAC2 (Q92769 whole entry): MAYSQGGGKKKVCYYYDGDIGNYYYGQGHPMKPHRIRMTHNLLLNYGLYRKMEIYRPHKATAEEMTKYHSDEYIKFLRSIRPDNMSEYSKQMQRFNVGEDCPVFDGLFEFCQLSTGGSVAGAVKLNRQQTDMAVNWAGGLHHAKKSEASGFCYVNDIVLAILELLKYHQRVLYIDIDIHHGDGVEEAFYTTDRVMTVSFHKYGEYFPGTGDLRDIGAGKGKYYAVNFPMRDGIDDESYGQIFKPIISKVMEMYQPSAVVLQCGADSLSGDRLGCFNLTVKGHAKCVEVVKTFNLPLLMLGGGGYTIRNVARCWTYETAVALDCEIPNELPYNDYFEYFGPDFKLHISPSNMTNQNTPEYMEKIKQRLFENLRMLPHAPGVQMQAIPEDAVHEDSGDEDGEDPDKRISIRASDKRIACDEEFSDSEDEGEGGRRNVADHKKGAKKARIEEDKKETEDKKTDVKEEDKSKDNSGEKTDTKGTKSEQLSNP
Experimental: as §4, §5

CRBN = CRBN (Homo sapiens, UniProt Q96SW2); assay: Automatic Western blot (Simple Western), targeted protein degradation: CRBN; assay type: cell-based; conditions: 0.001-10 μM, 24 hours
Sequence of CRBN (Q96SW2 whole entry): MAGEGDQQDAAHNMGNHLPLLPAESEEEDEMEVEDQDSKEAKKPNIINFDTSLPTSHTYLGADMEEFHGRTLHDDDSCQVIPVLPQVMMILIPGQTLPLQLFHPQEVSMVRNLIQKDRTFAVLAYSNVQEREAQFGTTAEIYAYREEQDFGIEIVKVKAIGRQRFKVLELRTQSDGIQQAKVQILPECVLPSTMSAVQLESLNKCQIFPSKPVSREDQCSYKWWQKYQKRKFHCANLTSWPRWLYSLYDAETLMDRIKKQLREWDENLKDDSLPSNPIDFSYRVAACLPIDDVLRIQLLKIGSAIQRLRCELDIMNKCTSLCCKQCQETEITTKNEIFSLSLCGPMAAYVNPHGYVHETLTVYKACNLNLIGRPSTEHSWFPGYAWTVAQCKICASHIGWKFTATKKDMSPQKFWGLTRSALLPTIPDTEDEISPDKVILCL
Experimental: as §6

GAPDH = assay: Automatic Western blot (Simple Western): GAPDH (sample loading control); assay type: cell-based, human; conditions: 0.001-10 μM, 24 hours
Experimental: as §4, §5

[2] = system: human hematopoietic cancer cells; assay: Cancer cell proliferation assay (CellTiter-Glo), blood cancer cells; assay type: cell-based; conditions: 3 days, concentration-dependent (FIG. 2)
Experimental: as §1, §2, §3

In the case of `O=C(CCCCc1ccc(C(=O)NCc2ccc3c(c2)CN(C2CCC(=O)NC2=O)C3=O)cc1)NO` (stereo not drawn) [Compound 4, N-((2-(2,6-dioxopiperidin-3-yl)-1-oxoisoindolin-5-yl)methyl)-4-(5-(hydroxyamino)-5-oxopentyl)benzamide], the “proliferation of human solid tissue cancer cells” value [1] is reported as “selectively suppressed the proliferation”, the “Compound-induced c-MYC degradation after pretreatment with the proteosome inhibitor bortezomib” value (c-MYC; H929 cells, bortezomib pretreatment) is reported as “prevented” and the “c-MYC in H929 cells (targeted protein degradation / expression)” value (c-MYC; 0.001-10 μM, 24 hours) is reported as “reduced c-MYC and HDAC expression”. The “c-MYC in H929 cells (targeted protein degradation / expression)” value (c-MYC; 0.001-10 μM, 24 hours, listed as compound 4) was “degraded”, the “levels of c-MYC” value (c-MYC; H929 or Jurkat cells, 0.001-10 μM, 24 hours) was “clearly reduced” and the “c-MYC in Jurkat cells (targeted protein degradation)” value (c-MYC; Jurkat cells, 0.001-10 μM, 24 hours) was “degraded”. The “cytokine production from SEB induced PBMC” value (SEB induced PBMC) was “enhanced cytokine production”, the target protein degradation (target protein) was “caused target protein degradation” and the “Aiolos in Jurkat cells (targeted protein degradation)” value (Aiolos) was “degraded”. For the same molecule, the “cytokine production from Poly (I:C) induced PBMC” value (Poly (I:C) induced PBMC) was “suppressed cytokine production”, the “Eos in Jurkat cells (targeted protein degradation)” value (Eos) was “degraded” and the “Ikaros in H929 cells (targeted protein degradation)” value (Ikaros; H929 cells) was “degraded”. The “levels of Ikaros” value (Ikaros; H929 or Jurkat cells) was “clearly reduced”, the “Ikaros in Jurkat cells (targeted protein degradation / expression)” value (Ikaros) was “reduced Ikaros expression” and the “Ikaros in Jurkat cells (targeted protein degradation / expression)” value (Ikaros; listed as compound 4) was “degraded”. The “intracellular HDAC activity in human cancer cells” value (HDAC) was “inhibit intracellular HDAC activity; also recorded: suppressed intracellular HDAC activity”, the “cytokine production from LPS induced PBMC” value (LPS induced PBMC) was “suppressed cytokine production” and the “HDAC2 in H929 cells (targeted protein degradation / expression)” value (HDAC2) was “reduced c-MYC and HDAC expression; also recorded: reduced HDAC2 expression”. For the same molecule, the “HDAC2 in H929 cells (targeted protein degradation / expression)” value (HDAC2; listed as compound 4) was “degraded”, the “levels of HDAC2” value (HDAC2; H929 or Jurkat cells) was “clearly reduced” and the “HDAC2 in Jurkat cells (targeted protein degradation)” value (HDAC2; Jurkat cells) was “degraded”. For the same molecule, the “CRBN in H929 cells (targeted protein degradation)” value (CRBN; H929 cells) was “degraded”, the “CRBN in Jurkat cells (targeted protein degradation)” value (CRBN; Jurkat cells) was “degraded” and the “GAPDH in H929 cells (expression, loading control)” value (GAPDH) was “no effect”. The “GAPDH in H929 cells (expression, loading control)” value (GAPDH; listed as compound 4) was “No effect”, the “GAPDH in Jurkat cells (expression, loading control)” value (GAPDH; Jurkat cells) was “No effect” and the “proliferation of human hematopoietic cancer cells” value [2] was “selectively suppressed the proliferation”.
